Laboratory results: patent publication US20070088043A1, “Novel HDAC inhibitors” (ORCHID RESEARCH LABORATORIES LIMITED., priority 2005, published 2007)

Legend:
NCIH 460 cells = assay: Anti-cancer screen (MTT), NCIH460; format: cell-based; set-up: NCIH460 TGI: unit: uM; settings: for GI50: concentration to decrease % growth by 50%; for IC100: read-out: NCIH460 TGI; for LC50: concentration to decrease % growth by 150%
Description: (§1) Experimental drugs are screened for anti-cancer activity in three cell lines for their GI50, TGI and LC50 values (using five concentrations for each compound). The cell lines are maintained in DMEM containing 10% fetal bovine serum. 96 well micro titer plates are inoculated with cells in 100 μL for 24 h at 37° C., 5% CO2, 95% air and 100% relative humidity. 5000 HCT 116 cells/well, 5000 NCIH 460 cells/well and 5000 U251 cells/well are plated. A separate plate with these cell lines is also inoculated to determine cell viability before the addition of the compounds (T0).
(§2) Following 24-hour incubation, experimental drugs are added to the 96 well plates. Each plate contains one of the above cell lines and the following in triplicate: five different concentrations (0.01, 0.1, 1, 10 and 100 μM) of four different compounds, appropriate dilutions of a cytotoxic standard and control (untreated) wells. Compounds are dissolved in DMSO to make 20 mM stock solutions on the day of drug addition and frozen at −20° C. Serial dilutions of these 20 mM stock solutions are made in complete growth medium such that 100 μL of these drug solutions in medium, of final concentrations equaling 0.01, 0.1, 1, 10 and 100 μM can be added to the cells in triplicate. Standard drugs whose anti-cancer activity has been well documented and which are regularly used are doxorubicin and SAHA.
(§3) For To measurement, 24 hours after seeding the cells, 10 μL of 3-(4,5-Dimethyl-2-thiazolyl)-2,5-diphenyl-2H-tetrazolium (MTT) solution per well is added and incubation carried out for 3 hours at 37° C., 5% CO2, 95% air and 100% relative humidity, protected from light. Cells incubated with compounds for 48 hours are treated similarly except with the addition of 20 μL MTT solution per well and a subsequent incubation under the same conditions. After 3 hours of MTT incubation, well contents are aspirated carefully followed by addition of 150 μL DMSO per well. Plates are agitated to ensure solution of the formazan crystals in DMSO and absorbance read at 570 nm. […]

HCT 116 cells = assay: Anti-cancer screen (MTT), HCT116; format: cell-based; set-up: HCT116 TGI: unit: uM; settings: for GI50: concentration to decrease % growth by 50%; for IC100: read-out: HCT116 TGI; for LC50: concentration to decrease % growth by 150%
Description: as §1, §2, §3

MDAMB231/U251 = assay: Anti-cancer screen (MTT), MDAMB231/U251; format: cell-based; set-up: MDAMB231/U251 TGI: unit: uM; settings: MDAMB231/U251 cells, 48 hours; for GI50: concentration to decrease % growth by 50%; for IC100: read-out: MDAMB231/U251 TGI; for LC50: concentration to decrease % growth by 150%
Description: as §1, §2, §3

[1] = system: NCIH460, HCT116, MDAMB231/U251; assay: Anti-cancer screen, mean GI50 over the cell lines; format: cell-based; settings: in µM
Description: as §1, §2, §3

[2] = system: HDAC (Mouse Liver Extract); assay: Histone Deacetylase (HDAC) Inhibition Assay using Boc-Lys (Ac)-AMC Substrate; format: biochemical; settings: mouse liver enzyme, NA = No Activity; for HDAC Inhibition 1 μM / HDAC Inhibition 10 μM: in % (unit assumed)
Description: HDAC Activitv Screening: Histone Deacetylase (HDAC) Inhibition Assay using Boc-Lys (Ac)-AMC Substrate:
Inhibition of HDAC has been implicated to modulate transcription and to induce apoptosis or differentiation in cancer cells. The fluorometric assay provides a fast and fluorescence based method that eliminates radioactivity, extractions or chromatography, as used in traditional assays. The assay based on two steps. First, the HDAC fluorometric substrate, which comprises an acetylated lysine side chain, is incubated with a sample containing HDAC activity (Mouse Liver Extract). Deacetylation of the substrate sensitizes the substrate, in the second step; treatment with the Trypsin stop solution produces a fluorophore that can be easily analyzed using fluorescence plate reader.
Assay was done in 96 well black microplate and total volume of the assay is 100 ul. Mouse liver enzyme is diluted 1:6 with HDAC buffer. Enzyme cocktail made of 10 ul of diluted enzyme and 30 ul of HDAC buffer. 40 ul of enzyme cocktail dispensed into each well. 10 ul of different concentrations of inhibitor added in to each well, except enzyme control well. Preincubated the plate at 30° C. for 5 minutes. The HDAC reaction is started by adding 50 ul of HDAC substrate (Boc-Lys (Ac)-AMC Substrate) solution. Incubated the plate at 30° C. for 30 minutes. Adding 100 ul of Trypsin stop solution stops the reaction. The plate is incubated again at 30° C. for 20-30 minutes. The release of AMC is monitored by measuring the fluorescence at excitation wavelength of 365 or 360 nm and emission wavelength of 440 or 460 nm. Buffer and substrate alone kept for blank subtraction. (Dennis Wegener et al, Anal. Biochem, 321, 2003, 202-208).

[3] = Homo sapiens, NCI-H460, NCIH460 cells, 48 hours, MTT
[4] = Homo sapiens, NCI-H460, NCIH460 cells, 48 hours, MTT, concentration to decrease % growth by 100%
[5] = Homo sapiens, HCT-116, HCT116 cells, 48 hours, MTT
[6] = Homo sapiens, HCT-116, HCT116 cells, 48 hours, MTT, concentration to decrease % growth by 100%
[7] = concentration to decrease % growth by 100%

SMILES	GI50 (NCIH 460 cells; [3])	IC100 (NCIH 460 cells; [4])	LC50 (NCIH 460 cells; [3])	GI50 (HCT 116 cells; [5])	IC100 (HCT 116 cells; [6])	LC50 (HCT 116 cells; [5])	GI50 (MDAMB231/U251)	IC100 (MDAMB231/U251; [7])	LC50 (MDAMB231/U251)	Mean GI50 [1]	HDAC Inhibition 1 μM [2]	HDAC Inhibition 10 μM [2]	IC50 [2]	CC50 (NCIH 460 cells)	GI50 (NCIH 460 cells; NCIH460 cells, 48 hours, MTT)	NCIH460 TGI (NCIH 460 cells; NCIH460 cells, 48 hours, MTT, concentration to decrease % growth by 100%)	CC50 (HCT 116 cells)	GI50 (HCT 116 cells; HCT116 cells, 48 hours, MTT)	HCT116 TGI (HCT 116 cells; HCT116 cells, 48 hours, MTT, concentration to decrease % growth by 100%)	MDAMB231/U251 TGI (MDAMB231/U251; [7])
O=C(CCCCCCC(=O)N1CCN(CC(=O)Nc2nc3ccccc3s2)CC1)NO [Example 29, 8-{4-[2-(1,3-Benzothiazol-2-ylamino)-2-oxoethyl]piperazin-1-yl}-N-hydroxy-8-oxo octanamide]	0.8 µM	93 µM	> 100 µM	30 µM	> 100 µM	> 100 µM	11 µM	55 µM	95 µM	13.9	61.41	97.00	0.76 µM	–	–	–	–	–	–	–
O=C(CN1CCN(C(=O)CCCCCS)CC1)Nc1nc2ccccc2s1 [Example 24, N-1,3-benzothiazol-2-yl-2-[4-(6-mercaptohexanoyl)piperazin-1-yl]acetamide]	60 µM	> 100 µM	> 100 µM	0.7 µM	> 100 µM	> 100 µM	5 µM	66 µM	> 100 µM	21.90	4	27.4	–	–	–	–	–	–	–	–
CC(=O)SCCCCCC(=O)N1CCN(CC(=O)Nc2nc(C)cs2)CC1 [Example 17, 2-[4-(6-Thioacetylhexanoyl)piperazin-1-yl]-N-(4-methyl-1,3-thiazol-2-yl)acetamide]	7.5 µM	> 100 µM	> 100 µM	26 µM	> 100 µM	> 100 µM	67 µM	> 100 µM	> 100 µM	33.50	68.04	96.19	–	–	–	–	–	–	–	–
COc1cccc2sc(NC(=O)CN3CCN(C(=O)CCCCCSC(C)=O)CC3)nc12 [Example 21, 2-[4-(6-Thioacetylhexanoyl)piperazin-1-yl]-N-(4-methoxy-1,3-benzothiazol-2-yl)acetamide]	93 µM	> 100 µM	> 100 µM	52 µM	> 100 µM	> 100 µM	38 µM	> 100 µM	> 100 µM	61	82.9	96.2	0.57 µM	–	–	–	–	–	–	–
CC(=O)SCCCCCC(=O)N1CCN(C(=O)CN2CCOCC2)CC1 [Example 2]	> 100 µM	> 100 µM	> 100 µM	> 100 µM	> 100 µM	> 100 µM	> 100 µM	> 100 µM	> 100 µM	>100	8.31	34.56	–	–	–	–	–	–	–	–
CC(=O)SCCCCCC(=O)N1CCN(CC(=O)Nc2nc3c(C)cccc3s2)CC1 [Example 10, 2-[4-(6-Thioacetylhexanoyl)piperazin-1-yl]-N-(4-methyl-1,3-benzothiazol-2-yl)acetamide]	0.5 µM	2 µM	95 µM	3 µM	50 µM	> 100 µM	2 µM	9 µM	> 100 µM	1.80	54.06	87.16	1.5 µM	–	–	–	–	–	–	–
Cc1csc(NC(=O)CN2CCN(C(=O)CCCCCCC(=O)NO)CC2)n1 [Example 33, 8-{4-[2-(4-Methyl-1,3-thiazol-2-ylamino)-2-oxoethyl]piperazin-1-yl}-N-hydroxy-8-oxo octanamide]	90 µM	> 100 µM	> 100 µM	55 µM	> 100 µM	> 100 µM	10 µM	98 µM	> 100 µM	51.67	50.09	92.38	–	–	–	–	–	–	–	–
CCOc1ccc2nc(NC(=O)CN3CCN(C(=O)CCCCCCC(=O)NO)CC3)sc2c1 [Example 32, 8-{4-[2-(6-Ethoxy-1,3-benzothiazol-2-ylamino)-2-oxoethyl]piperazin-1-yl}-N-hydroxy-8-oxo octanamide]	–	–	–	–	–	–	1.5 µM	–	98 µM	15.50	60.30	98.91	–	> 100 µM	38 µM	72	95 µM	7 µM	42	9.5
CC(=O)SCCCCC(=O)N1CCN(C(=O)CNc2nc3ccccc3s2)CC1 [Example 1, N-{2-[4-(5-thioacetylpentanoyl)piperazin-1-yl]-2-oxoethyl}-1,3-benzothiazol-2-amine]	> 100 µM	> 100 µM	> 100 µM	> 100 µM	> 100 µM	> 100 µM	80 µM	> 100 µM	> 100 µM	>100	10.48	38.59	–	–	–	–	–	–	–	–
CSCC[C@@H](N)C(=O)NCCCCCC(=O)N1CCN(CC(=O)Nc2nc3ccccc3s2)CC1 [Example 42]	56 µM	> 100 µM	> 100 µM	26 µM	78 µM	> 100 µM	99.5 µM	> 100 µM	> 100 µM	61	–	–	–	–	–	–	–	–	–	–
Cc1cccc2sc(NC(=O)CN3CCN(C(=O)CCCCCNO)CC3)nc12 [Example 27]	8 µM	> 100 µM	> 100 µM	8 µM	> 100 µM	> 100 µM	28 µM	80 µM	> 100 µM	14.70	–	–	–	–	–	–	–	–	–	–
COc1cccc2sc(NC(=O)CN3CCN(C(=O)CCCCCN(OCc4ccccc4)C(C)=O)CC3)nc12 [Example 28, N-4-methoxy-1,3-benzothiazol-2-yl-2-{6-[6 (N-acetyl-O-benzyl)hexanoyl]piperazin-1-yl}acetamide]	21 µM	> 100 µM	> 100 µM	5.5 µM	58 µM	> 100 µM	0.08 µM	9 µM	> 100 µM	8.86	–	–	–	–	–	–	–	–	–	–
